# Calls of active or inactive are those of the source. The rule behind the calls is not given here. Bridge positions count the residues as written; N and C are the ends. Square brackets hold non-standard residues; d marks the D form. Peptide text beside a SMILES is read from it. * marks the point of attachment. ξ: configuration not given here. Hexanoyl(4ξ-Me) = CCC(C)CCC(=O)*; dOrn = NCCC[C@@H](N)C(=O)O; Orn = NCCC[C@H](N)C(=O)O
# Experiments:
# Staphylococcus aureus [1] = assay: Antibacterial activity against Staphylococcus aureus ATCC 25923 pretreated with 5% mouse serum followed by compound addition and measured after 6 hrs by broth microdilution method (reference value: 8 microM); assay type: functional
# [2] = Toxicity in male BALB/c mouse assessed as hemorrhage in liver at 46.88 mg/kg, ip administered as single dose by H and E staining based analysis; assay type: organism-based; settings: in vivo
# Staphylococcus aureus [3] = assay: Antibacterial activity against Staphylococcus aureus ATCC 25923 pretreated with 5% mouse serum followed by compound addition and measured after 1 hr by broth microdilution method (reference value: 8 microM); assay type: functional
# [4] = Toxicity in male BALB/c mouse assessed as survival rate at 90.9 mg/kg, ip measured after 6 days relative to control; assay type: organism-based; settings: in vivo, time 6 day
# Staphylococcus aureus [5] = assay: Antibacterial activity against Staphylococcus aureus ATCC 25923 assessed as fold increase in MIC pretreated with KCl followed by compound addition and measured after 2 hrs by broth microdilution method; assay type: functional
# Staphylococcus aureus [6] = assay: Antibacterial activity against Staphylococcus aureus ATCC 25923 pretreated with 20% mouse serum followed by compound addition and measured after 1 hr by broth microdilution method (reference value: 8 microM); assay type: functional
# Pseudomonas aeruginosa [7] = assay: Induction of morphological changes in Pseudomonas aeruginosa ATCC 27853 assessed as aggregation at 2 times MIC measured after 0.5 hrs by SEM based analysis; assay type: functional, organism-based
# Staphylococcus aureus [8] = assay: Antibacterial activity against Staphylococcus aureus ATCC 25923 pretreated with Mgcl2 followed by compound addition and measured after 2 hrs by broth microdilution method (reference value: 8 microM); assay type: functional
# Staphylococcus aureus [9] = assay: Antibacterial activity against Staphylococcus aureus ATCC 25923 assessed as fold increase in MIC pretreated with 2.5 to 20% mouse serum followed by compound addition and measured after 1 to 6 hrs by broth microdilution method; assay type: functional; settings: time 1-6 hrs
# [10] = Toxicity in male BALB/c mouse assessed as edema in kidney at 46.88 mg/kg, ip administered as single dose by H and E staining based analysis; assay type: organism-based; settings: in vivo
# Pseudomonas aeruginosa [11] = assay: Bactericidal activity against Pseudomonas aeruginosa ATCC 27853 assessed as assessed as eradication of bacterial cells at 1/2 to 1 times MIC measured after 0.5 hr by time killing analysis relative to control; assay type: functional
# Staphylococcus aureus [12] = assay: Bactericidal activity against Staphylococcus aureus ATCC 25923 assessed as assessed as eradication of bacterial cells at 1/2 times MIC measured after 6 hrs by time killing analysis; assay type: functional, organism-based
# Staphylococcus aureus [13] = assay: Antibacterial activity against Staphylococcus aureus ATCC 25923 pretreated with 20% mouse serum followed by compound addition and measured after 6 hrs by broth microdilution method (reference value: 8 microM); assay type: functional
# [14] = Toxicity in male BALB/c mouse assessed as survival rate at 29.2 mg/kg, ip measured after 7 days relative to control; assay type: organism-based; settings: in vivo, time 7 day
# Pseudomonas aeruginosa [15] = assay: Bactericidal activity against Pseudomonas aeruginosa ATCC 27853 assessed as assessed as eradication of bacterial cells at 2 to 4 times MIC measured after 10 mins by time killing analysis; assay type: functional, organism-based
# Staphylococcus aureus [16] = assay: Antibacterial activity against Staphylococcus aureus ATCC 25923 pretreated with ZnCl2 followed by compound addition and measured after 2 hrs by broth microdilution method (reference value: 8 microM); assay type: functional
# Staphylococcus aureus [17] = assay: Induction of morphological changes in Staphylococcus aureus ATCC 25923 assessed as leakage of cellular content at 2 times MIC measured after 0.5 hrs by SEM based analysis; assay type: functional, organism-based
# Staphylococcus aureus [18] = assay: Antibacterial activity against Staphylococcus aureus ATCC 25923 pretreated with 5% mouse serum followed by compound addition and measured after 1 hr by broth microdilution method (reference value: 64 microM); assay type: functional
# Staphylococcus aureus [19] = assay: Antibacterial activity against Staphylococcus aureus ATCC 25923 pretreated with Fecl3 followed by compound addition and measured after 2 hrs by broth microdilution method (reference value: 64 microM); assay type: functional
# Staphylococcus aureus [20] = assay: Antibacterial activity against Staphylococcus aureus ATCC 25923 pretreated with 10% mouse serum followed by compound addition and measured after 1 hr by broth microdilution method (reference value: 64 microM); assay type: functional
# Staphylococcus aureus [21] = assay: Antibacterial activity against Staphylococcus aureus ATCC 25923 assessed as fold increase in MIC pretreated with 2.5 to 20% mouse serum followed by compound addition and measured after 1 hr by broth microdilution method; assay type: functional
# Staphylococcus aureus [22] = assay: Antibacterial activity against Staphylococcus aureus ATCC 25923 pretreated with 2.5% mouse serum followed by compound addition and measured after 1 hr by broth microdilution method (reference value: 64 microM); assay type: functional
# Pseudomonas aeruginosa [23] = assay: Antibacterial activity against Pseudomonas aeruginosa ATCC 27853 assessed as fold increase in MIC pretreated with 2.5 to 20% mouse serum followed by compound addition and measured after 1 hr by broth microdilution method; assay type: functional
# Cell membrane [24] = assay: Induction of outer membrane permeabilization in Pseudomonas aeruginosa ATCC 27853 assessed increase in fluorescence intensity at 1 MIC measured upto 12 mins by fluorescence based NPN uptake assay; assay type: cell membranes
# Staphylococcus aureus [25] = assay: Antibacterial activity against Staphylococcus aureus ATCC 25923 assessed as fold increase in MIC pretreated with Na-cl followed by compound addition and measured after 2 hrs by broth microdilution method; assay type: functional
# Cell membrane [26] = assay: Induction of cytoplasmic membrane depolarization in Pseudomonas aeruginosa ATCC 27853 assessed as increase in fluorescence intensity at 4 times MIC measured upto 12 min by DiSC3-5 dye based fluorescence method; assay type: cell membranes
# Staphylococcus aureus [27] = assay: Antibacterial activity against Staphylococcus aureus ATCC 25923 pretreated with 2.5% mouse serum followed by compound addition and measured after 6 hrs by broth microdilution method (reference value: 16 microM); assay type: functional, organism-based
# Staphylococcus aureus [28] = assay: Antibacterial activity against Staphylococcus aureus ATCC 25923 pretreated with 5% mouse serum followed by compound addition and measured after 6 hrs by broth microdilution method (reference value: 16 microM); assay type: functional, organism-based
# Cell membrane [29] = assay: Induction of outer membrane permeabilization in Pseudomonas aeruginosa ATCC 27853 assessed increase in fluorescence intensity measured after 12 mins by fluorescence based NPN uptake assay; assay type: cell membranes
# Staphylococcus aureus [30] = assay: Antibacterial activity against Staphylococcus aureus ATCC 25923 pretreated with 5% mouse serum followed by compound addition and measured after 1 hr by broth microdilution method (reference value: 16 microM); assay type: functional, organism-based
# Pseudomonas aeruginosa [31] = assay: Bactericidal activity against Pseudomonas aeruginosa ATCC 27853 assessed as assessed as eradication of bacterial cells at 2 to 4 times MIC measured after 0.5 hr by time killing analysis relative to control; assay type: functional, organism-based
compound,measurement,setting,value
CCCCCCCCCC(=O)N[C@H](CCCN)C(=O)N[C@H](Cc1ccc(O)cc1)C(=O)N[C@H](Cc1c[nH]c2ccccc12)C(=O)N[C@H](CCCN)C(=O)N[C@@H](CCCN)C(=O)NCC(=O)N[C@H](CCCN)C(=O)N[C@@H](Cc1c[nH]c2ccccc12)C(=O)N[C@H](C(=O)N[C@H](C(=O)NCC(=O)N[C@@H](CO)C(=O)O)[C@@H](C)CC)[C@@H](C)O,MIC,Staphylococcus aureus [1],16 µM
same,Activity,[2],Toxic
same,MIC,Staphylococcus aureus [3],16 µM
same,survival at 144 h,[4],12.5%
same,fold change (FC),Staphylococcus aureus [5],2
same,MIC,Staphylococcus aureus [6],> 128 µM
same,Activity,Pseudomonas aeruginosa [7],Active
same,MIC,Staphylococcus aureus [8],8 µM
same,fold change (FC),Staphylococcus aureus [9],4
same,Activity,[10],Toxic
same,Activity,Pseudomonas aeruginosa [11],100%
same,Activity,Staphylococcus aureus [12],Active
same,MIC,Staphylococcus aureus [13],> 128 µM
same,survival at 168 h,[14],100%
same,Activity,Pseudomonas aeruginosa [15],Active
same,MIC,Staphylococcus aureus [16],32 µM
CCC(C)CCC(=O)N[C@H](CC(N)=O)C(=O)N[C@H](Cc1ccc(O)cc1)C(=O)N[C@H](Cc1c[nH]c2ccccc12)C(=O)N[C@H](CCCN)C(=O)N[C@@H](CCCN)C(=O)NCC(=O)N[C@H](CCCN)C(=O)N[C@@H](Cc1c[nH]c2ccccc12)C(=O)N[C@@H]1C(=O)N[C@@H]([C@@H](C)CC)C(=O)NCC(=O)N[C@@H](CO)C(=O)O[C@@H]1C (stereo partly specified) ({Hexanoyl(4ξ-Me)}-[dN][dY][dW][dOrn][Orn]G[dOrn]WTIGS; ester 9-C),Activity,Staphylococcus aureus [17],Active
same,MIC,Staphylococcus aureus [18],64 µM
same,MIC,Staphylococcus aureus [19],64 µM
same,MIC,Staphylococcus aureus [20],64 µM
same,fold change (FC),Staphylococcus aureus [21],2
same,MIC,Staphylococcus aureus [22],64 µM
same,fold change (FC),Pseudomonas aeruginosa [23],2
same,Activity,Cell membrane [24],Active
same,fold change (FC),Staphylococcus aureus [25],2
POLYMYXIN B,Activity,Cell membrane [26],inactive
same,MIC,Staphylococcus aureus [27],16 µM
same,MIC,Staphylococcus aureus [28],16 µM
same,Activity,Cell membrane [29],Dose-Dependent Effect
same,MIC,Staphylococcus aureus [30],16 µM
same,Activity,Pseudomonas aeruginosa [31],100%
